According to patent US9833497B2, “Human originated EGF domain proteins and use of the same” (CHENGDU SOURCEBIO LIMITED-LIABILITY COMPANY, priority 2013, dated 2017):

Key:
Format in all cases: cell-based
E. coli DH5α = assay: Antibacterial activity: MIC and growth curve against E. coli DH5α in 96-well plate; details: minimal inhibitory concentration against E. coli DH5α; 96-well plate, 5×10^5 CFU/mL, 37° C., judged after 8 h
Outline: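 Log-phase bacteria (OD600 ~0.5) resuspended in LB at 5×10^5 CFU/mL, exposed to recombinant protein at 50, 25, 12.5 μg/mL final in triplicate, 37 °C shaking at 175 rpm. OD600 read every 30 min; MIC is lowest concentration showing no growth.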

E. coli BL21 = assay: MIC against Gram-negative bacteria: E. coli BL21
Outline: (§1)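 Bacteria grown in LB at 37° C to McFarland 0.5, resuspended and seeded at 5×10^5 CFU/mL in 96-well plates. Purified human EGF-domain proteins two-fold serially diluted, triplicate wells; cultured at 37° C, shaking 175 rpm. MIC = lowest protein concentration with no growth.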

Pseudomonas aeruginosa = assay: MIC against Gram-negative bacteria: Pseudomonas aeruginosa
Outline: as §1

Klebsiella pneumonia = assay: MIC against Gram-negative bacteria: Klebsiella pneumonia
Outline: as §1

Enterobacter cloacae = assay: MIC against Gram-negative bacteria: Enterobacter cloacae
Outline: as §1

Aeromonas hydrophila = assay: MIC against Gram-negative bacteria: Aeromonas hydrophila
Outline: as §1

Citrobacter diversus = assay: MIC against Gram-negative bacteria: Citrobacter diversus
Outline: as §1

Moraxella catarrhalis = assay: MIC against Gram-negative bacteria: Moraxella catarrhalis
Outline: as §1

Proteus mirabilis = assay: MIC against Gram-negative bacteria: Proteus mirabilis
Outline: as §1

Proteus vulgaris = assay: MIC against Gram-negative bacteria: Proteus vulgaris
Outline: as §1

Serratia marcescens = assay: MIC against Gram-negative bacteria: Serratia marcescens
Outline: as §1

[1] = 96-well plate, 5×10^5 CFU/mL, 37° C., 10 h
[2] = E. coli BL21, 96-well plate, 5×10^5 CFU/mL, 37° C., 10 h
[3] = Pseudomonas aeruginosa, 96-well plate, 5×10^5 CFU/mL, 37° C., 10 h
[4] = Klebsiella pneumonia, 96-well plate, 5×10^5 CFU/mL, 37° C., 10 h
[5] = Enterobacter cloacae, 96-well plate, 5×10^5 CFU/mL, 37° C., 10 h
[6] = Aeromonas hydrophila, 96-well plate, 5×10^5 CFU/mL, 37° C., 10 h
[7] = Citrobacter diversus, 96-well plate, 5×10^5 CFU/mL, 37° C., 10 h
[8] = Moraxella catarrhalis, 96-well plate, 5×10^5 CFU/mL, 37° C., 10 h
[9] = Proteus mirabilis, 96-well plate, 5×10^5 CFU/mL, 37° C., 10 h
[10] = Proteus vulgaris, 96-well plate, 5×10^5 CFU/mL, 37° C., 10 h
[11] = Serratia marcescens, 96-well plate, 5×10^5 CFU/mL, 37° C., 10 h
[12] = 10 h cultivation at 37° C., 5×10^5 CFU/mL, two-fold serial dilution

## PRT545 (CNCSGPGIQELTDPTCDTDSGQCKCRPNVTGRRCDTCSPGFHGYPRCRP; listed as Homo sapiens)
E. coli DH5α
  MIC: 12.5 µg/mL
E. coli BL21; [1]
  MIC against E. coli BL21: 12.5 µg/mL
Pseudomonas aeruginosa; [1]
  MIC against P. aeruginosa: 12.5 µg/mL
Klebsiella pneumonia; [1]
  MIC against K. pneumonia: 25 µg/mL
Enterobacter cloacae; [1]
  MIC against E. cloacae: 12.5 µg/mL
Aeromonas hydrophila; [1]
  MIC against A. hydrophila: 25 µg/mL
Citrobacter diversus; [1]
  MIC against C. diversus: 12.5 µg/mL
Moraxella catarrhalis; [1]
  MIC against M. catarrhalis: 12.5 µg/mL
Proteus mirabilis; [1]
  MIC against P. mirabilis: 12.5 µg/mL
Proteus vulgaris; [1]
  MIC against P. vulgaris: 12.5 µg/mL
Serratia marcescens; [1]
  MIC against S. marcescens: 50 µg/mL

## PRT903 (DINECASDPCRNGANCTDCVDSYTCTCPAGFSGIHCE; listed as Homo sapiens)
E. coli DH5α
  MIC: 12.5 µg/mL
E. coli BL21; E. coli BL21, 10 h cultivation at 37° C.
  MIC: 50 µg/mL
Pseudomonas aeruginosa; P. aeruginosa, 10 h cultivation at 37° C.
  MIC: 12.5 µg/mL
Klebsiella pneumonia; K. pneumonia, 10 h cultivation at 37° C.
  MIC: 25 µg/mL
Enterobacter cloacae; E. cloacae, 10 h cultivation at 37° C.
  MIC: 50 µg/mL
Aeromonas hydrophila; A. hydrophila, 10 h cultivation at 37° C.
  MIC: 12.5 µg/mL
Citrobacter diversus; C. diversus, 10 h cultivation at 37° C.
  MIC: 50 µg/mL
Moraxella catarrhalis; M. catarrhalis, 10 h cultivation at 37° C.
  MIC: 12.5 µg/mL
Proteus mirabilis; P. mirabilis, 10 h cultivation at 37° C.
  MIC: 25 µg/mL
Proteus vulgaris; P. vulgaris, 10 h cultivation at 37° C.
  MIC: 50 µg/mL
Serratia marcescens; S. marcescens, 10 h cultivation at 37° C.
  MIC: 12.5 µg/mL

## PRT129 (CSTYGHLCRNGGRCREKRRGVTCDCAFSAYDGPFC; listed as Homo sapiens)
E. coli DH5α
  MIC: 50 µg/mL
E. coli BL21; [2]
  MIC (μg/mL) E. coli BL21: 12.5 µg/mL
Pseudomonas aeruginosa; [3]
  MIC (μg/mL) P. aeruginosa: 50 µg/mL
Klebsiella pneumonia; [4]
  MIC (μg/mL) K. pneumonia: 12.5 µg/mL
Enterobacter cloacae; [5]
  MIC (μg/mL) E. cloacae: 50 µg/mL
Aeromonas hydrophila; [6]
  MIC (μg/mL) A. hydrophila: 25 µg/mL
Citrobacter diversus; [7]
  MIC (μg/mL) C. diversus: 12.5 µg/mL
Moraxella catarrhalis; [8]
  MIC (μg/mL) M. catarrhalis: 25 µg/mL
Proteus mirabilis; [9]
  MIC (μg/mL) P. mirabilis: 25 µg/mL
Proteus vulgaris; [10]
  MIC (μg/mL) P. vulgaris: 12.5 µg/mL
Serratia marcescens; [11]
  MIC (μg/mL) S. marcescens: 12.5 µg/mL

## PRT467 (ECPGGCRNGGFCNERRICECPDGFHGPHCE; listed as Homo sapiens)
E. coli DH5α
  MIC: 12.5 µg/mL
E. coli BL21; [1]
  MIC against E. coli BL21: 12.5 µg/mL
Pseudomonas aeruginosa; [1]
  MIC against P. aeruginosa: 12.5 µg/mL
Klebsiella pneumonia; [1]
  MIC against K. pneumonia: 25 µg/mL
Enterobacter cloacae; [1]
  MIC against E. cloacae: 12.5 µg/mL
Aeromonas hydrophila; [1]
  MIC against A. hydrophila: 25 µg/mL
Citrobacter diversus; [1]
  MIC against C. diversus: 50 µg/mL
Moraxella catarrhalis; [1]
  MIC against M. catarrhalis: 25 µg/mL
Proteus mirabilis; [1]
  MIC against P. mirabilis: 12.5 µg/mL
Proteus vulgaris; [1]
  MIC against P. vulgaris: 25 µg/mL
Serratia marcescens; [1]
  MIC against S. marcescens: 50 µg/mL

## PRT547 (CQCHGHSDRCLPGSGVCVDCQHNTEGAHCERCQAGFVSSRDDPSAPCVS; listed as Homo sapiens)
E. coli DH5α
  MIC: 25 µg/mL
E. coli BL21; [1]
  MIC against E. coli BL21: 12.5 µg/mL
Pseudomonas aeruginosa; [1]
  MIC against P. aeruginosa: 25 µg/mL
Klebsiella pneumonia; [1]
  MIC against K. pneumonia: 50 µg/mL
Enterobacter cloacae; [1]
  MIC against E. cloacae: 25 µg/mL
Aeromonas hydrophila; [1]
  MIC against A. hydrophila: 12.5 µg/mL
Citrobacter diversus; [1]
  MIC against C. diversus: 25 µg/mL
Moraxella catarrhalis; [1]
  MIC against M. catarrhalis: 50 µg/mL
Proteus mirabilis; [1]
  MIC against P. mirabilis: 25 µg/mL
Proteus vulgaris; [1]
  MIC against P. vulgaris: 12.5 µg/mL
Serratia marcescens; [1]
  MIC against S. marcescens: 25 µg/mL

## PRT1078 (GTNKCRVNNGGCSSLCLATPGSRQCACAEDQVLDADGVTCL; listed as Homo sapiens)
E. coli DH5α
  MIC: 25 µg/mL
E. coli BL21; [12]
  MIC E. coli BL21: 50 µg/mL
Pseudomonas aeruginosa; [12]
  MIC P. aeruginosa: 25 µg/mL
Klebsiella pneumonia; [12]
  MIC K. pneumonia: 12.5 µg/mL
Enterobacter cloacae; [12]
  MIC E. cloacae: 25 µg/mL
Aeromonas hydrophila; [12]
  MIC A. hydrophila: 50 µg/mL
Citrobacter diversus; [12]
  MIC C. diversus: 12.5 µg/mL
Moraxella catarrhalis; [12]
  MIC M. catarrhalis: 50 µg/mL
Proteus mirabilis; [12]
  MIC P. mirabilis: 12.5 µg/mL
Proteus vulgaris; [12]
  MIC P. vulgaris: 50 µg/mL
Serratia marcescens; [12]
  MIC S. marcescens: 12.5 µg/mL

## PRT1221 (DINECLQSPCKNGAICQNFPGSFNCVCKTGYTGKMCE; listed as Homo sapiens)
E. coli DH5α
  MIC: 25 µg/mL
E. coli BL21; [2]
  MIC against E. coli BL21: 12.5 µg/mL
Pseudomonas aeruginosa; [3]
  MIC against P. aeruginosa: 25 µg/mL
Klebsiella pneumonia; [4]
  MIC against K. pneumonia: 25 µg/mL
Enterobacter cloacae; [5]
  MIC against E. cloacae: 50 µg/mL
Aeromonas hydrophila; [6]
  MIC against A. hydrophila: 25 µg/mL
Citrobacter diversus; [7]
  MIC against C. diversus: 12.5 µg/mL
Moraxella catarrhalis; [8]
  MIC against M. catarrhalis: 50 µg/mL
Proteus mirabilis; [9]
  MIC against P. mirabilis: 25 µg/mL
Proteus vulgaris; [10]
  MIC against P. vulgaris: 12.5 µg/mL
Serratia marcescens; [11]
  MIC against S. marcescens: 50 µg/mL
